{"source": "patent US6846805B2", "about": "“Helical peptidomimetics” (The Brigham and Women's Hospital, Inc., priority 2002, dated 2005)", "note": "Square brackets hold non-standard residues; d marks the D form. Peptide text beside a SMILES is read from it. * marks the point of attachment. dBpa = N[C@H](Cc1ccc(C(=O)c2ccccc2)cc1)C(=O)O; Boc = CC(C)(C)OC(=O)*; Aib = CC(C)(N)C(=O)O; Bn = c1ccc(C*)cc1", "data": [{"tested_on": "γ-secretase (production of total Aβ)", "test": "Inhibition of total Aβ production in APP-transfected cells (sandwich ELISA)", "format": "cell-based", "conditions": "cell-based assay, CHO cells stably transfected with human APP; read-out: IC50 (concentration of compound that reduced production of total Aβ by 50%)", "excerpt": "(§1) Based on the helical model for the APP transmembrane domain, we have identified short peptides designed to adopt a similar conformation that block γ-secretase activity. Judicious replacement of selected residues of short APP-derived peptides with 2-aminoisobutyric acid (Aib), a known helix-inducing amino acid (19, 20), provided peptides that, in principle, mimic the γ-secretase cleavage site on one face of the helix, with Aib residues on the other face. We have identified Aib-containing peptides (see below) that inhibit Aβ production in APP-transfected cells with IC50's as low as 2 μM. […] We also discovered that an Aib decapeptide that is not based on the APP sequence (VIIb in ref 19: […] The crystal structure of this compound has been determined, and the peptide is fully helical (19). […] These peptides likewise assume a helical conformation, although of the opposite sense (left-handed instead of right-handed). Thus, the invention advantageously provides helical peptidomimetics having improved metabolic stability. […] IC50 is the concentration of compound that reduced production of total Aβ by 50% in a cell-based assay using CHO cells stably transfected with human APP. […] The 15 D-peptides, varied in first position, are tested for their ability to inhibit total Aβ production in APP-transfected cell lines using a sensitive, quantitative, and convenient sandwich ELISA as we have previously described (12, 13). The compound best able to reduce Aβ production is then used as a starting point for the synthesis of a second round of peptide synthesis, 15 compounds each defined at the second position and containing the optimal first residue. In this iterative fashion, the optimal residue for each position is determined.", "units": {"IC50": "µM"}, "values": [{"smiles": "CC[C@H](C)[C@H](NC(=O)[C@@H](NC(=O)[C@@H](NC(=O)OC(C)(C)C)C(C)C)C(C)C)C(=O)NC(C)(C)C(=O)N[C@H](C(=O)N[C@H](C(=O)NC(C)(C)C(=O)OC)C(C)C)[C@@H](C)OCc1ccccc1", "note": "[Compound 7, Boc-Val-Val-Ile-Aib-Thr(OBz)-Val-Aib-OMe] (Boc-VVI[Aib]T(Bn)V[Aib]-OMe)", "IC50": 6}, {"smiles": "CC[C@H](C)[C@H](NC(=O)[C@@H](NC(=O)[C@@H](NC(=O)C(C)(C)NC(=O)OC(C)(C)C)C(C)C)C(C)C)C(=O)NC(C)(C)C(=O)N[C@H](C(=O)N[C@H](C(=O)NC(C)(C)C(=O)OC)C(C)C)[C@@H](C)OCc1ccccc1", "note": "[Compound 8, Boc-Aib-Val-Val-Ile-Aib-Thr(OBz)-Val-Aib-OMe] (Boc-[Aib]VVI[Aib]T(Bn)V[Aib]-OMe)", "IC50": 6}, {"smiles": "CC[C@H](C)[C@H](NC(=O)C(C)(C)NC(=O)[C@@H](NC(=O)CNC(=O)OC(C)(C)C)C(C)C)C(=O)N[C@@H](C)C(=O)N[C@H](C(=O)NC(C)(C)C(=O)N[C@H](C(=O)N[C@H](C(=O)NC(C)(C)C(=O)OC)C(C)C)[C@@H](C)CC)[C@@H](C)OCc1ccccc1", "note": "[Compound 5, Boc-Gly-Val-Aib-Ile-Ala-Thr(OBz)-Aib-Ile-Val-Aib-OMe] (Boc-GV[Aib]IAT(Bn)[Aib]IV[Aib]-OMe)", "IC50": 5}, {"smiles": "CC[C@H](C)[C@H](NC(=O)[C@@H](NC(=O)OC(C)(C)C)C(C)C)C(=O)NC(C)(C)C(=O)N[C@H](C(=O)N[C@H](C(=O)NC(C)(C)C(=O)OC)C(C)C)[C@@H](C)OCc1ccccc1", "note": "[Compound 6, Boc-Val-Ile-Aib-Thr(OBz)-Val-Aib-OMe] (Boc-VI[Aib]T(Bn)V[Aib]-OMe)", "IC50": 12}, {"smiles": "CC[C@H](C)[C@H](NC(=O)[C@@H](NC(=O)[C@@H](NC(=O)C(C)(C)NC(=O)CNC(=O)OC(C)(C)C)C(C)C)C(C)C)C(=O)NC(C)(C)C(=O)N[C@H](C(=O)N[C@H](C(=O)NC(C)(C)C(=O)OC)C(C)C)[C@@H](C)OCc1ccccc1", "note": "[Compound 9, Boc-Gly-Aib-Val-Val-Ile-Aib-Thr(OBz)-Val-Aib-OMe] (Boc-G[Aib]VVI[Aib]T(Bn)V[Aib]-OMe)", "IC50": 3}, {"smiles": "CC[C@H](C)[C@H](NC(=O)C(C)(C)NC(=O)[C@@H](NC(=O)OC(C)(C)C)C(C)C)C(=O)N[C@@H](C)C(=O)N[C@H](C(=O)NC(C)(C)C(=O)N[C@H](C(=O)N[C@H](C(=O)NC(C)(C)C(=O)OC)C(C)C)[C@@H](C)CC)[C@@H](C)OCc1ccccc1", "note": "[Compound 4, Boc-Val-Aib-Ile-Ala-Thr(OBz)-Aib-Ile-Val-Aib-OMe] (Boc-V[Aib]IAT(Bn)[Aib]IV[Aib]-OMe)", "IC50": 2}, {"smiles": "CC[C@H](C)[C@H](NC(=O)C(C)(C)NC(=O)OC(C)(C)C)C(=O)N[C@@H](C)C(=O)N[C@H](C(=O)NC(C)(C)C(=O)N[C@H](C(=O)N[C@H](C(=O)NC(C)(C)C(=O)OC)C(C)C)[C@@H](C)CC)[C@@H](C)OCc1ccccc1", "note": "[Compound 3, Boc-Aib-Ile-Ala-Thr(OBz)-Aib-Ile-Val-Aib-OMe] (Boc-[Aib]IAT(Bn)[Aib]IV[Aib]-OMe)", "IC50": 10}, {"smiles": "CC[C@H](C)[C@H](NC(=O)OC(C)(C)C)C(=O)N[C@@H](C)C(=O)N[C@H](C(=O)NC(C)(C)C(=O)N[C@H](C(=O)N[C@H](C(=O)NC(C)(C)C(=O)OC)C(C)C)[C@@H](C)CC)[C@@H](C)OCc1ccccc1", "note": "[Compound 2, Boc-Ile-Ala-Thr(OBz)-Aib-Ile-Val-Aib-OMe] (Boc-IAT(Bn)[Aib]IV[Aib]-OMe)", "IC50": 15}, {"smiles": "CC[C@H](C)[C@H](NC(=O)C(C)(C)NC(=O)[C@@H](NC(=O)[C@H](C)NC(=O)OC(C)(C)C)[C@@H](C)OCc1ccccc1)C(=O)N[C@H](C(=O)NC(C)(C)C(=O)OC)C(C)C", "note": "[Compound 1, Boc-Ala-Thr(OBz)-Aib-Ile-Val-Aib-OMe] (Boc-AT(Bn)[Aib]IV[Aib]-OMe)", "IC50": 25}, {"smiles": "COC(=O)C(C)(C)NC(=O)[C@H](CC(C)C)NC(=O)[C@H](C)NC(=O)C(C)(C)NC(=O)[C@H](CC(C)C)NC(=O)[C@H](C)NC(=O)C(C)(C)NC(=O)[C@H](CC(C)C)NC(=O)[C@H](C)NC(=O)C(C)(C)NC(=O)OC(C)(C)C", "note": "[VIIb, Boc-Aib-Ala-Leu-Aib-Ala-Leu-Aib-Ala-Leu-Aib-O-methylester, reference compound] (Boc-[Aib]AL[Aib]AL[Aib]AL[Aib]-OMe)", "IC50": 2}, {"smiles": "CC[C@H](C)[C@H](NC(=O)[C@@H](NC(=O)[C@@H](NC(=O)C(C)(C)NC(=O)CNC(=O)[C@@H](NC(=O)OC(C)(C)C)C(C)C)C(C)C)C(C)C)C(=O)NC(C)(C)C(=O)N[C@H](C(=O)N[C@H](C(=O)NC(C)(C)C(=O)OC)C(C)C)[C@@H](C)OCc1ccccc1", "note": "[Compound 10, Boc-Val-Gly-Aib-Val-Val-Ile-Aib-Thr(OBz)-Val-Aib-OMe] (Boc-VG[Aib]VVI[Aib]T(Bn)V[Aib]-OMe)", "IC50": 3}]}, {"tested_on": "γ-secretase (production of total Aβ)", "test": "Inhibition of total Aβ production in APP-transfected cells (sandwich ELISA)", "format": "cell-based", "conditions": "same cell-based assay, CHO cells stably transfected with human APP; read-out: IC50 (reduction of total Aβ production)", "excerpt": "as §1", "units": {"IC50": "µM"}, "values": [{"smiles": "COC(=O)C(C)(C)NC(=O)[C@H](NC(=O)[C@H](NC(=O)C(C)(C)NC(=O)[C@@H](Cc1ccc(C(=O)c2ccccc2)cc1)NC(=O)[C@H](NC(=O)[C@H](NC(=O)C(C)(C)NC(=O)CNC(=O)[C@H](NC(=O)OC(C)(C)C)C(C)C)C(C)C)C(C)C)[C@H](C)OCc1ccccc1)C(C)C", "note": "[SEQ ID NO:11, Boc-D-Val-Gly-Aib-D-Val-D-Val-D-BPA-Aib-D-Thr(OBz)-D-Val-Aib-OMe] (Boc-[dV]G[Aib][dV][dV][dBpa][Aib][dT](Bn)[dV][Aib]-OMe)", "IC50": 0.1}]}]}
